Measured values: ChEMBL document CHEMBL1201862, “PubChem BioAssay data set” (2004)
Calls of active or inactive are those of the source.

What was measured:
Orexin receptor type 2 [1] = molecular target: T1, Orexin receptor type 2 (Homo sapiens, UniProt O43614); assay: Counterscreen assay for antagonists of the orexin 1 receptor (OX1R; HCRTR1): Fluorescence-based cell-based dose response assay for antagonists of the orexin 2 receptor (OX2R; HCRTR2), run by assay provider.; type: functional
T1 sequence (O43614 whole entry): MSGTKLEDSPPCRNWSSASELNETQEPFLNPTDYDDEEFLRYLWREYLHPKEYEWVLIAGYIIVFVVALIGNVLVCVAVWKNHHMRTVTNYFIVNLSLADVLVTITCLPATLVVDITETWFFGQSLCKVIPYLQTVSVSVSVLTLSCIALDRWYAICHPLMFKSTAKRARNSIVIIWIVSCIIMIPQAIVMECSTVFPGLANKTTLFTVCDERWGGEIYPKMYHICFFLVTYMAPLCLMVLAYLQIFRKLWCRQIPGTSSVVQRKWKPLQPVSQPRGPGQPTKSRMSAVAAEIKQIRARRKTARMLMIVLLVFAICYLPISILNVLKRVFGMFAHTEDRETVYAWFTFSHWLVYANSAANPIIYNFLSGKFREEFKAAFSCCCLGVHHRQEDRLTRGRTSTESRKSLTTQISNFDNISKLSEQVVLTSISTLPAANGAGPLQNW

[2] = molecular target: T2, Orexin/Hypocretin receptor type 1 (Homo sapiens, UniProt O43613); assay: (§1) Fluorescence-based cell-based high throughput dose response assay for antagonists of the orexin 1 receptor (OX1R; HCRTR1). [Related pubchem assays (depositor defined):AID434989, AID435008, AID463079, AID485270, AID492963, AID492964, AID492965, AID493232, AID504717, AID504718]; type: functional
T2 sequence (O43613 whole entry): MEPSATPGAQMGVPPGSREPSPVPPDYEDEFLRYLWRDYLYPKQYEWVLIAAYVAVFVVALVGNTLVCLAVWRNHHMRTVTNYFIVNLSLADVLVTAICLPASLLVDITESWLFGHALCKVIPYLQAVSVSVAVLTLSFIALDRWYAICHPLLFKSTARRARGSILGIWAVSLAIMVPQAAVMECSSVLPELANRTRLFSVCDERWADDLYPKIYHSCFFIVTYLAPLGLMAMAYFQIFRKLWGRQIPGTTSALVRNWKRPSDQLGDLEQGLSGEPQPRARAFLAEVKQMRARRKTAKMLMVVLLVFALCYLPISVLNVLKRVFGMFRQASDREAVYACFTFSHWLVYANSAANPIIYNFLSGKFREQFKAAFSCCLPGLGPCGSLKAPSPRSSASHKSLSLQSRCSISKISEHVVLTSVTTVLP

[3] = molecular target: T2, Orexin/Hypocretin receptor type 1; assay: as §1, with “Homogeneous Time Resolved Fluorescence (HTRF)-based” for “Fluorescence-based”; type: functional
[4] = (§2) Counterscreen for antagonists of the orexin 1 receptor (OX1R; HCRTR1): Fluorescence-based cell-based high throughput dose response assay to identify antagonists of the parental CHO cell line. [Related pubchem assays (depositor defined):AID434989, AID435008, AID463079, AID485270, AID492963, AID492964, AID492965, AID493232, AID504699, AID504701]; type: functional
CHO-K1 = assay: as §2, with “Homogeneous time resolved fluorescence (HTRF)-based” for “Fluorescence-based”, “cell-based” for “cell-based high throughput”, “CHO-K1” for “CHO”; type: functional; conditions: Cricetulus griseus;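 note: potency for inhibition of ATP-stimulated IP1 production as antagonists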
Orexin receptor type 2 [5] = molecular target: T1, Orexin receptor type 2; assay: Counterscreen assay for antagonists of the orexin 1 receptor (OX1R; HCRTR1): Homogeneous Time Resolved Fluorescence (HTRF)-based cell-based dose response assay for antagonists of the orexin 2 receptor (OX2R; HCRTR2), run by assay provider.; type: functional
[6] = molecular target: Ras and Rab interactor 1/Tyrosine-protein kinase ABL1 (Homo sapiens, UniProt P00519+Q13671); type: functional;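 note: biochemical TR-FRET dose-response test measuring inhibition of binding between Rin1 and Abl proteins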
Sequence of Ras and Rab interactor 1/Tyrosine-protein kinase ABL1 (P00519 whole entry): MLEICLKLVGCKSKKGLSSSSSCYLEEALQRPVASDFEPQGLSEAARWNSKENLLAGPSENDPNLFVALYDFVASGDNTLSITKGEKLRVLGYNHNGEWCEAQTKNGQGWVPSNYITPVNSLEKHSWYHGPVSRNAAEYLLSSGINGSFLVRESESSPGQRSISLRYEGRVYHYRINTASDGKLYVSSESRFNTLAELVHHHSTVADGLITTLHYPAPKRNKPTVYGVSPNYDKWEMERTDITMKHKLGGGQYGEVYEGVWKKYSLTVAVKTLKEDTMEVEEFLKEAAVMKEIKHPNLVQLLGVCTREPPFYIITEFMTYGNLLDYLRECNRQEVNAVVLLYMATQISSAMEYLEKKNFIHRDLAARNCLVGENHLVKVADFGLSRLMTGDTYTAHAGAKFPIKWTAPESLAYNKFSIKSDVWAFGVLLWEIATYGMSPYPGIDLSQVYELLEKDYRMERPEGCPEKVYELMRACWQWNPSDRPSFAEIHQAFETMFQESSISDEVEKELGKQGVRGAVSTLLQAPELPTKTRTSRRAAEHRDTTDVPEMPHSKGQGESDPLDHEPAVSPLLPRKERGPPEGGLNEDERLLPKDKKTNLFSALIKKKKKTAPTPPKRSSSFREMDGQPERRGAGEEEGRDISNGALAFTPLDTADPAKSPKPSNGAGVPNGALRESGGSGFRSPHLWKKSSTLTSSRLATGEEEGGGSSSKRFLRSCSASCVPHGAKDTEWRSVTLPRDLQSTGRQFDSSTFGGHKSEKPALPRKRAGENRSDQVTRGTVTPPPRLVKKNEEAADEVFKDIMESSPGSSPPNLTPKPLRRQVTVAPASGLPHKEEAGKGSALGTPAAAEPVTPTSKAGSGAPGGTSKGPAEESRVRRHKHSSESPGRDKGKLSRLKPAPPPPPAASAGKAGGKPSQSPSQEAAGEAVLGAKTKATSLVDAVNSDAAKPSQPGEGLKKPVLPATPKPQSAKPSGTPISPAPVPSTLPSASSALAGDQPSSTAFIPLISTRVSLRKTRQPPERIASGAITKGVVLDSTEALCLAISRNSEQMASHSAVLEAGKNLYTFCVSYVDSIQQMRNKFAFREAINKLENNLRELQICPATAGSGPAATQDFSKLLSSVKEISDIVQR
Sequence of Ras and Rab interactor 1/Tyrosine-protein kinase ABL1 (Q13671 whole entry): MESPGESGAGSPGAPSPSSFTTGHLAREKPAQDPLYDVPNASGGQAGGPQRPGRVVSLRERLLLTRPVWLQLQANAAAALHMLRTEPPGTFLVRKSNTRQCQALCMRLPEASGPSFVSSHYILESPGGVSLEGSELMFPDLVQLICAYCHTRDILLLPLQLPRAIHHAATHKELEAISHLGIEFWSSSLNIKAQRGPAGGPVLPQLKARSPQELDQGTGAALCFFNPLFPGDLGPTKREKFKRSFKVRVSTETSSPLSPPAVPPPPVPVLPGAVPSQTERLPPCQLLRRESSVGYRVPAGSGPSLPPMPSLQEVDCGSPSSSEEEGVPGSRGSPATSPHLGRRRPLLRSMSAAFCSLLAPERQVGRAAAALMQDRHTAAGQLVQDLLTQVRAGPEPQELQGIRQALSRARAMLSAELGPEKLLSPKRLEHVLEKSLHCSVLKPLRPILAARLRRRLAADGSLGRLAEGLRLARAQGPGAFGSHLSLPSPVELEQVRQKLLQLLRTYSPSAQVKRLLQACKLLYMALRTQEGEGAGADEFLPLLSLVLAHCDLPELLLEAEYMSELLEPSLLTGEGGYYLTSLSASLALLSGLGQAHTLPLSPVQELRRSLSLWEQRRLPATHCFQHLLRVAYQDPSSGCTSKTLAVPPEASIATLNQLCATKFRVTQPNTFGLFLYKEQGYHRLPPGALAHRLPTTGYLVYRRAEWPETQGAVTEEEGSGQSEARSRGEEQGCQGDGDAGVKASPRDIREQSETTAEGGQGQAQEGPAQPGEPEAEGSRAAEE

[7] = molecular target: Luciferin 4-monooxygenase (Photinus pyralis, UniProt P08659); assay: firefly luciferase enzyme inhibitors, dose response, biochemical, luminescence (AID 1891)
Sequence of Luciferin 4-monooxygenase (P08659 whole entry): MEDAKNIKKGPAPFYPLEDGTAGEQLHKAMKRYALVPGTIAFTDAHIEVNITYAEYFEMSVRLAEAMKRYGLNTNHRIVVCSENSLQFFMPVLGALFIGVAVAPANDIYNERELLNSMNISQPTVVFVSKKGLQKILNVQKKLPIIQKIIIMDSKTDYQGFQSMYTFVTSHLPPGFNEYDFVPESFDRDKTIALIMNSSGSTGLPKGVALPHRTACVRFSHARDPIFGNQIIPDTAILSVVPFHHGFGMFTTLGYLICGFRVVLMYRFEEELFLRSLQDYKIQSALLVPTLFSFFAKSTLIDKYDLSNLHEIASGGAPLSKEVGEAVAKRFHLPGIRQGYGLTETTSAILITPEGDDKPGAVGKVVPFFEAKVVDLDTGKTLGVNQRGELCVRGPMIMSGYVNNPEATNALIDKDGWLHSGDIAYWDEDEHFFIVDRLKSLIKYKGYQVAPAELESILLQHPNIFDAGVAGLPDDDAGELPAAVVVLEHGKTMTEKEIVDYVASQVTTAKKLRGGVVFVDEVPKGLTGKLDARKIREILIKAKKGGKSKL

Cytochrome P450 2C9 = Cytochrome P450 2C9 (Homo sapiens, UniProt P11712)
Sequence of Cytochrome P450 2C9 (P11712 whole entry): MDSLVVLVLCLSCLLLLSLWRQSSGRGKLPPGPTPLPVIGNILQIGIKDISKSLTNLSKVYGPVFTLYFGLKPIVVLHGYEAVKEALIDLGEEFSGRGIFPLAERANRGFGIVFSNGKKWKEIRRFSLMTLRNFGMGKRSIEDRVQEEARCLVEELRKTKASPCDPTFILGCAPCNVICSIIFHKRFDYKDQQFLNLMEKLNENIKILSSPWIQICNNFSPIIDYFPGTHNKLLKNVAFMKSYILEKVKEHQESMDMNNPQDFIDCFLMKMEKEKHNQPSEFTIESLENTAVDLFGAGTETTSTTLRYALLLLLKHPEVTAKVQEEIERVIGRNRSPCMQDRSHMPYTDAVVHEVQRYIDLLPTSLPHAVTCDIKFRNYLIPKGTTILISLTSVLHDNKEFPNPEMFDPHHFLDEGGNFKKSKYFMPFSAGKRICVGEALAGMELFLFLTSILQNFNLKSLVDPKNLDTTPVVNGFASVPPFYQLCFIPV

Cytochrome P450 2D6 = Cytochrome P450 2D6 (Homo sapiens, UniProt P10635);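 note: CYP2D6 member of a cytochrome P450 panel assay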
Sequence of Cytochrome P450 2D6 (P10635 whole entry): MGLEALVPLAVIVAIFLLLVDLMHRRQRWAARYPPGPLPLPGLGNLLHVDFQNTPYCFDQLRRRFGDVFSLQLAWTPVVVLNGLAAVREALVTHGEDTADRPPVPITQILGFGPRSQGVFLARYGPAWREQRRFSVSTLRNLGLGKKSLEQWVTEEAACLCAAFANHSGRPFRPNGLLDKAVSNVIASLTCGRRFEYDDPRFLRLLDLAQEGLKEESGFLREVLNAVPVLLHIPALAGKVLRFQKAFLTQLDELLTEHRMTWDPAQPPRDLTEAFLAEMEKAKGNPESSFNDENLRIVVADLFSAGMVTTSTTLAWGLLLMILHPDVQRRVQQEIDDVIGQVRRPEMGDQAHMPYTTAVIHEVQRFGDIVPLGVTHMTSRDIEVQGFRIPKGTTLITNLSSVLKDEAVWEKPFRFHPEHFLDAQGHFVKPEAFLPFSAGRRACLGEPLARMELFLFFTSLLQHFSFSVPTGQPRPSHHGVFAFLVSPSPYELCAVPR

[8] = Luminescence Cell-Based Dose Confirmation HTS to Identify Inhibitors of Platelet Dense Granule Release. [Related pubchem assays: 1663 (Primary HTS), 1678 (Summary of Project)]; type: functional
[9] = HEp-2 cell cytotoxicity, dose response, cytotoxicity control for RSV inhibitor project, HTS (AID 2410); type: functional; conditions: human respiratory syncytial virus
[10] = molecular target: Eukaryotic translation initiation factor 4E (Mus musculus, UniProt P63073); assay: eIF4E–eIF4G protein interaction inhibitors, dose response, biochemical, TR-FRET (AID 855); type: functional;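 note: potency for disrupting eIF4E binding to eIF4GI seen as loss of FRET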
Sequence of Eukaryotic translation initiation factor 4E (P63073 whole entry): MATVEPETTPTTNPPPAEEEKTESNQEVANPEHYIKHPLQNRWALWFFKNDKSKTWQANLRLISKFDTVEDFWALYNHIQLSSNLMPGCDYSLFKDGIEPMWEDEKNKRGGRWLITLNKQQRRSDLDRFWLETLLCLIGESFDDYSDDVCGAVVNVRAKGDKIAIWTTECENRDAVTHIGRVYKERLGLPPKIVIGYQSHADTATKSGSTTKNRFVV

Protein skinhead-1 = molecular target: T3, Protein skinhead-1 (Caenorhabditis elegans, UniProt P34707); type: functional
T3 sequence (P34707 whole entry): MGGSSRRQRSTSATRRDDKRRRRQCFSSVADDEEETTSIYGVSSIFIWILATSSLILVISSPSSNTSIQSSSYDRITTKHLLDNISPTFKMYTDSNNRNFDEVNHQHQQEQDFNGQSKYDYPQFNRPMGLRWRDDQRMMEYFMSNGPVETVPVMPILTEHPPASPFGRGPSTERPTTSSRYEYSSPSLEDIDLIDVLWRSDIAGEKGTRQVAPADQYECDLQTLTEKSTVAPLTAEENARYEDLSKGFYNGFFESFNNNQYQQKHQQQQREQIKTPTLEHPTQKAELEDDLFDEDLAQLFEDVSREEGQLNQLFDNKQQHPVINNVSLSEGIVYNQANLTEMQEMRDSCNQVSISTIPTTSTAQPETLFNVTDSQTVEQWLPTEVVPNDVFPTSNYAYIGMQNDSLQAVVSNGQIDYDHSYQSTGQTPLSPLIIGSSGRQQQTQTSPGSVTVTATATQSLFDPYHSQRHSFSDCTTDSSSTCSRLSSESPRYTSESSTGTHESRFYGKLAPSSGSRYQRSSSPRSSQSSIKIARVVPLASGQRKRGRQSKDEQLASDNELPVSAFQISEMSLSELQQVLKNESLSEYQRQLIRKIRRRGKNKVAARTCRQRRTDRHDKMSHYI

[11] = molecular target: T4, Sentrin-specific protease 8 (Homo sapiens, UniProt Q96LD8); assay: SENP8 protease inhibitors, SAR follow-up, biochemical, luminescence (AID 504501); type: functional
T4 sequence (Q96LD8 whole entry): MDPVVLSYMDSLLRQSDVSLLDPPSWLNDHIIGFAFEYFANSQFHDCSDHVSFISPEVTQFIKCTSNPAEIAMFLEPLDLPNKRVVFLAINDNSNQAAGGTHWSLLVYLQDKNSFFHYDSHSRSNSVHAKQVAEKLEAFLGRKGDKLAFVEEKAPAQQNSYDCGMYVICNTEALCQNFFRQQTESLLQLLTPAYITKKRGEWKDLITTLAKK

[12] = molecular target: T5, Sentrin-specific protease 7 (Homo sapiens, UniProt Q9BQF6); assay: SENP7 protease inhibitors, SAR follow-up, biochemical, luminescence (AID 504497); type: functional
T5 sequence (Q9BQF6 whole entry): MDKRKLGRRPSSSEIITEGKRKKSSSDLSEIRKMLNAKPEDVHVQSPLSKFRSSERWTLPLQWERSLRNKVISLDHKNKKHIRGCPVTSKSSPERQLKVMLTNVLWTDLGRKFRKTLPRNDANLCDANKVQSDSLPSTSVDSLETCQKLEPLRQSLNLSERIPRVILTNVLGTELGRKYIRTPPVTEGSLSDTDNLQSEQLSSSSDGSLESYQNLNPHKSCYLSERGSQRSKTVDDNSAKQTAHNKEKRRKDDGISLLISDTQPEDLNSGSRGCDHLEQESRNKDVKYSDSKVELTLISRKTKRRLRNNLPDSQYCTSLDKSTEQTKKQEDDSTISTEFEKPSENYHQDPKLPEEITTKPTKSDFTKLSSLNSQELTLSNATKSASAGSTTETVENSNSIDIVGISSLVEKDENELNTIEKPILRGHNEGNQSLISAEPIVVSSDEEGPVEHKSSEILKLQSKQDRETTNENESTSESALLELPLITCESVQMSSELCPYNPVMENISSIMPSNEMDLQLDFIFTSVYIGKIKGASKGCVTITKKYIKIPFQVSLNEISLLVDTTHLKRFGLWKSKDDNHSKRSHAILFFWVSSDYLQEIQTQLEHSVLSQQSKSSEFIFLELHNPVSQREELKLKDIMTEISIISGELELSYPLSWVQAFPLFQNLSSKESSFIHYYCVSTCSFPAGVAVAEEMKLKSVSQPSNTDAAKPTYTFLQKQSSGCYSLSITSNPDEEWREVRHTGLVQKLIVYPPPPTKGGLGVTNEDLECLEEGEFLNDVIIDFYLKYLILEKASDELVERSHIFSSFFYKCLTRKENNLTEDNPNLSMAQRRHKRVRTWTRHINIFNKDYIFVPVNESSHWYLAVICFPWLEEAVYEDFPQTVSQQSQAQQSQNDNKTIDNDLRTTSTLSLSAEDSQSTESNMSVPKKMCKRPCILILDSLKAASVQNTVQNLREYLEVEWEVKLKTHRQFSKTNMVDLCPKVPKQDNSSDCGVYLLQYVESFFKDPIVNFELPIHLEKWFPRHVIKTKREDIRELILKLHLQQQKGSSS

[13] = molecular target: T6, Sentrin-specific protease 6 (Homo sapiens, UniProt Q9GZR1); assay: SAR Analysis of small molecule inhibitors of Sentrin-specific protease 6 (SENP6) using a Luminescent assay. [Related pubchem assays (depositor defined):AID2582, AID2599]; type: functional
T6 sequence (Q9GZR1 whole entry): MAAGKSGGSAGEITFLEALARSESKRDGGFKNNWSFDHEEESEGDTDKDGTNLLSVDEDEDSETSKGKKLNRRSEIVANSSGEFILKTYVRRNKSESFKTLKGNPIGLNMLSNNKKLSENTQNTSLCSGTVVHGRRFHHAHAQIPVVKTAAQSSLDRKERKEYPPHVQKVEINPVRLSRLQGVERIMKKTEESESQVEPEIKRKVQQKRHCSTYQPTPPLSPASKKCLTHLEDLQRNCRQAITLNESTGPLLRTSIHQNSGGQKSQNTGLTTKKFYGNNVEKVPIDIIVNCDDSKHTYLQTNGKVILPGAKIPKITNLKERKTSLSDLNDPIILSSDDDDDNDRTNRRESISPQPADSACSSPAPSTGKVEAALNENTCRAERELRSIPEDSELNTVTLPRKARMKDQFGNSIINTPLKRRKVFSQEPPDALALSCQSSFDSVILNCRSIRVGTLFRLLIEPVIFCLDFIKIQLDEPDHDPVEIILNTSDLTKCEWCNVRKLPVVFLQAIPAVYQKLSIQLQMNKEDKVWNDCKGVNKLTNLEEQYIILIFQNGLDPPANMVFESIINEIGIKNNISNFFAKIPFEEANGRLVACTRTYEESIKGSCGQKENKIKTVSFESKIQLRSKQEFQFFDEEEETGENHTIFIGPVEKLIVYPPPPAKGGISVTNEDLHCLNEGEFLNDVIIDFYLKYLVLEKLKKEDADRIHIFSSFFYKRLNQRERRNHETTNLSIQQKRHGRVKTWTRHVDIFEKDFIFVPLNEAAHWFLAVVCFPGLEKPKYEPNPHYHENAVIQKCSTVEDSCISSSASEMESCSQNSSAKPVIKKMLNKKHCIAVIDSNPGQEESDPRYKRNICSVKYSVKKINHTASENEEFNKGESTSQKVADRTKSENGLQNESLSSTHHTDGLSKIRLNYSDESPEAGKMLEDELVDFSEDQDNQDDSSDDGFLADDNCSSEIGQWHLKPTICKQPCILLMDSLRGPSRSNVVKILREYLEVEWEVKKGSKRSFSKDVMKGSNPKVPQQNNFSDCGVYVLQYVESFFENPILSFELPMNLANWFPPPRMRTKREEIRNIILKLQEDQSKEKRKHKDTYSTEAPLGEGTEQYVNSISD

Caspase-3 = molecular target: T7, Caspase-3 (Homo sapiens, UniProt P42574); assay: SAR Analysis of small molecule inhibitors of Sentrin-specific proteases (SENPs) using a Caspase-3 Selectivity assay. [Related pubchem assays (depositor defined):AID2540, AID2599, AID434973, AID489001]; type: functional
T7 sequence (P42574 whole entry): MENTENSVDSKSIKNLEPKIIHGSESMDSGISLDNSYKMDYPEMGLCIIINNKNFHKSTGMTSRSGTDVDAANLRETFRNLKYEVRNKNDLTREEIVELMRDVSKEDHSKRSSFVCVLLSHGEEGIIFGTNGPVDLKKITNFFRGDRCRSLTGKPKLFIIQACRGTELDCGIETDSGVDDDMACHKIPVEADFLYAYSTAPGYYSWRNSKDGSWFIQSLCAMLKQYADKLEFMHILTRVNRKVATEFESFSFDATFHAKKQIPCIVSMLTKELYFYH

SMILES	IC50 (Orexin receptor type 2 [1])	IC50 [2]	IC50 [3]	IC50 [4]	IC50 (CHO-K1)	IC50 (Orexin receptor type 2 [5])	IC50 [6]	also measured
COc1ccc(NC(=O)C(=O)Nc2cccc3cccnc23)cc1OC	> 88.8 µM (inactive)	1.34 µM (active)	0.475 µM (active)	> 49.8 µM (inactive)	> 66.2 µM (inactive)	> 50 µM (inactive)	–	–
CCOc1ccc(CCNC(=O)CN2C(=O)c3cccnc3Oc3ccc(C)cc32)cc1OCC	–	–	–	–	–	–	9.82 µM (active)	–
COc1ccc(/C=N/Nc2snc(SC)c2C#N)cc1OC	> 88.8 µM (inactive)	4.85 µM (active)	1.93 µM (active)	> 49.8 µM (inactive)	> 66.2 µM (inactive)	> 50 µM (inactive)	–	EC50 [7]: 46.8 µM (active); AC50 (Cytochrome P450 2C9): 12.6 µM (inconclusive); AC50 (Cytochrome P450 2D6): 0.282 µM (inconclusive); EC50 [8]: > 112 µM (not active)
Cc1cnc(NC(=O)c2ccc(-c3nc4ccccc4s3)o2)s1	> 88.8 µM (inactive)	1.97 µM (active)	0.333 µM (active)	> 49.8 µM (inactive)	62 µM (inactive)	> 50 µM (inactive)	–	CC50 [9]: 30.7 µM (active); IC50 [10]: > 64 µM (inactive)
Fc1ccc(/C=C/c2nnc(-c3cccs3)o2)cc1	–	–	–	–	–	–	–	IC50 (Protein skinhead-1): > 100 µM (inactive); IC50 [11]: 47 µM (active); IC50 [12]: 4.3 µM (active); IC50 [13]: 39 µM (active); IC50 (Caspase-3): 6.4 µM (active)
COc1ccc(S(=O)(=O)N2CCCCCC2)cc1C(=O)Nc1ccc(C(=O)N(C)C)cc1	–	–	–	–	–	–	8.07 µM (active)	–
